Test results: patent US20160311795A1, “PYRIMIDINE DIAMINE DERIVATIVES AS INHIBITORS OF CYTOSOLIC HSP90” (CALASIA PHARMACEUTICALS, INC., priority 2012, published 2016)

System: Akt1 in MBA-MD-231 cells
Assay: Hsp90 client protein stability, Akt1 ELISA
Assay type: cell-based
Conditions: MBA-MD-231, 48 hours, increasing concentrations
Method: In further experiments, the effect of SBI-0640725 on the stability of Hsp90 client proteins was analyzed. […] Akt1 protein levels were measured in cell lysates using ELISA.

COc1c(C)cnc(CN(CCc2ccc(F)cc2)c2cc(Cl)nc(N)n2)c1C [SBI-0640725]
levels of the client protein Akt1: progressive decrease in the levels of the client protein Akt1
